Measurements from US12606528B2, “Methods and materials for inhibiting NF-kB activity” (University of Pittsburgh - Of the Commonwealth System of …, priority 2019, dated 2026).

These compounds were tested on TNF release (assay: TNF assay: TNF release from LPS-stimulated human PBMCs (TNF ELISA)). Conditions: PBMC; LPS-stimulated human PBMCs, TNF ELISA; read-out: IC50 (TNF assay).
Type: cell-based
Experimental: 25k THP1-NF-κB-LUC cells were dispensed into 384 well plate (per well). Cells were treated with compounds with various concentrations for 2 hours before addition of LPS (10 ng/mL) for 18 hours. Secreted luciferase activity were measured using quant-luc reagents (1 bag of luc reagent dilute to 40 mL, use 10 μL per well). Data were normalized to vehicle control and graphed. Compound IC50 towards inhibiting NF-κB were determined through Prism. Similarly, 10k human PBMCs cells were cultured in 384 well plate (per well). Cells were treated with compounds with various concentrations for 2 hours before addition of LPS (10 ng/ml) for 18 hours, and supernatants were collected and assayed for TNF ELISA. Compound IC50 towards inhibiting TNF release were determined through Prism. • Activity: “+”>10 μM, “++”>1 μM and <10 μM, “+++”>0.1 μM and <1 μM, “++++”<0.1 μM.

IC50 [µM]	SMILES
> 10	CC(C)S(=O)(=O)[C@@H]1CN(Cc2ccccc2)C[C@H]1S(=O)(=O)c1ccc(F)cc1 (racemic) [BC19643]
1 to 10	CC(=O)N1C[C@@H](S(=O)(=O)c2ccc(F)cc2)[C@H](S(=O)(=O)C(C)C)C1 (racemic) [BC19670]
1 to 10	CC(C)S(=O)(=O)[C@H]1CN(C(=O)c2ccccc2)C[C@@H]1S(=O)(=O)c1ccc(F)cc1 (racemic) [BC19683]
> 10	CC(C)S(=O)(=O)[C@H]1CN(C2CCOCC2)C[C@@H]1S(=O)(=O)c1ccc(F)cc1 (racemic) [BC19684]
> 10	Cn1cnnc1-c1ccc2nc(-c3ccc(F)cc3)c(-c3ccc(F)cc3)nc2c1 [BC19101]
> 10	Cc1nnc(-c2ccc3nc(-c4ccc(F)cc4)c(-c4ccc(F)cc4)nc3c2)[nH]1 [BC19102]
> 10	CN1CCN(C(=O)c2ccc3nc(C(F)(F)F)c(-c4ccc(F)cc4)nc3c2)CC1 [BC19103]
> 10	CN1CCN(C(=O)c2ccc3nc(C(F)(F)F)c(-c4ccccc4)nc3c2)CC1 [BC19104]

Each compound was assayed on NF-κB (assay: NF-κB assay: THP1-NF-κB-LUC cells, LPS-stimulated secreted luciferase). Conditions: THP1-NF-κB-LUC cells, LPS-stimulated; read-out: IC50 (NF-κB assay).
Type: cell-based
Outline: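 THP1-NF-κB-LUC cells (25k/well) were pretreated with compounds for 2 h, then stimulated with LPS (10 ng/mL) for 18 h. Secreted luciferase was measured and normalized to vehicle, and IC50 was fitted from the concentration series.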

IC50 [µM]	SMILES
> 10	CC(C)S(=O)(=O)[C@@H]1CN(Cc2ccccc2)C[C@H]1S(=O)(=O)c1ccc(F)cc1 (racemic) [BC19643]
1 to 10	CC(=O)N1C[C@@H](S(=O)(=O)c2ccc(F)cc2)[C@H](S(=O)(=O)C(C)C)C1 (racemic) [BC19670]
> 10	CC(C)S(=O)(=O)[C@H]1CN(C(=O)c2ccccc2)C[C@@H]1S(=O)(=O)c1ccc(F)cc1 (racemic) [BC19683]
> 10	CC(C)S(=O)(=O)[C@H]1CN(C2CCOCC2)C[C@@H]1S(=O)(=O)c1ccc(F)cc1 (racemic) [BC19684]
< 0.1	Cn1cnnc1-c1ccc2nc(-c3ccc(F)cc3)c(-c3ccc(F)cc3)nc2c1 [BC19101]
0.1 to 1	Cc1nnc(-c2ccc3nc(-c4ccc(F)cc4)c(-c4ccc(F)cc4)nc3c2)[nH]1 [BC19102]
> 10	CN1CCN(C(=O)c2ccc3nc(C(F)(F)F)c(-c4ccc(F)cc4)nc3c2)CC1 [BC19103]
> 10	CN1CCN(C(=O)c2ccc3nc(C(F)(F)F)c(-c4ccccc4)nc3c2)CC1 [BC19104]

Same assay, conditions: THP1-NF-κB-LUC cells; compounds 2 hours before LPS (10 ng/mL) for 18 hours; secreted luciferase; read-out: IC50 (NF-κB assay)

SMILES	IC50 [µM]
Cc1cc2c(cc1S(=O)(=O)Nc1c(C)cccc1C(C)C)OCC(=O)N2 [BC181313]	> 10
Cc1cc2c(cc1S(=O)(=O)N(C)c1ccc(Br)cc1)OCC(=O)N2 [BC181316]	> 10
COc1cccc(NS(=O)(=O)c2cc3c(cc2C)N(C(C)=O)CCO3)c1 [BC181317]	> 10
CC(=O)N1CCOc2cc(S(=O)(=O)Nc3c(C)cccc3C)c(C)cc21 [BC181318]	> 10
COc1ccc(NS(=O)(=O)c2cc3c(cc2C)N(C)CCO3)cc1 [BC181319]	> 10
Cc1cccc(NS(=O)(=O)c2cc3c(cc2C)N(C)CCO3)c1 [BC181320]	> 10
COc1ccc(NS(=O)(=O)c2cc3c(cc2C)NC(=O)CO3)cc1OC [BC181322]	> 10
Cc1cc2c(cc1S(=O)(=O)Nc1c(C)cccc1C)OCC(=O)N2 [BC181323]	> 10
COc1cc(NS(=O)(=O)c2cc3c(cc2C)NC(=O)CO3)cc(OC)c1OC [BC181324]	> 10
CCc1cccc(CC)c1NS(=O)(=O)c1cc2c(cc1C)NC(=O)CO2 [BC181325]	> 10
COc1ccc(C)cc1NS(=O)(=O)c1cc2c(cc1C)NC(=O)CO2 [BC181326]	> 10
COc1ccc(N(C)S(=O)(=O)c2cc3c(cc2C)NC(=O)CO3)c(OC)c1 [BC181327]	> 10
COc1ccc(NS(=O)(=O)c2cc3c(cc2C)N(C(C)=O)CCO3)cc1 [BC181328]	> 10
CCNS(=O)(=O)c1cc2c(cc1C)NC(=O)CO2 [BC181332]	> 10
Cc1ccc(C)c(NS(=O)(=O)c2cc3c(cc2C)NC(=O)CO3)c1 [BC181335]	> 10
CCOc1ccc(OCC)c(NS(=O)(=O)c2cc3c(cc2C)NC(=O)CO3)c1 [BC181337]	> 10
CC(=O)N1CCOc2cc(S(=O)(=O)Nc3ccccc3Br)c(C)cc21 [BC181339]	> 10
CCOc1ccc(NS(=O)(=O)c2cc3c(cc2C)N(C(C)=O)CCO3)cc1 [BC181340]	> 10
Cc1cc2c(cc1S(=O)(=O)Nc1ccc(F)cc1F)OCCN2C [BC181341]	1 to 10

Second part, the compound after the results:

IC50 [µM]	SMILES
< 0.1	CSc1cccc(NS(=O)(=O)c2cc3c(cc2C)NC(=O)CO3)c1 [BC181314]
< 0.1	Cc1cc2c(cc1S(=O)(=O)Nc1ccc(CC(F)(F)F)cc1)OCC(=O)N2 [BC181315]
< 0.1	Cc1cc2c(cc1S(=O)(=O)Nc1cccc(Br)c1)OCC(=O)N2 [BC181321]
1 to 10	CCc1ccc(NS(=O)(=O)c2cc3c(cc2C)N(C(C)=O)CCO3)cc1 [BC181329]
1 to 10	Cc1cc2c(cc1S(=O)(=O)Nc1ccc(Cl)cc1)OCCN2C [BC181330]
< 0.1	Cc1cc2c(cc1S(=O)(=O)Nc1ccc(F)c(Cl)c1)OCC(=O)N2 [BC181331]
1 to 10	COc1ccc(NS(=O)(=O)c2cc3c(cc2C)NC(=O)CO3)cc1 [BC181333]
1 to 10	CCOC(=O)c1cccc(NS(=O)(=O)c2cc3c(cc2C)NC(=O)CO3)c1 [BC181334]
< 0.1	Cc1cc2c(cc1S(=O)(=O)Nc1ccc(C(C)C)cc1)OCC(=O)N2 [BC181336]
1 to 10	CCCN(c1ccccc1OC)S(=O)(=O)c1cc2c(cc1C)NC(=O)CO2 [BC181338]
0.1 to 1	Cc1cc2c(cc1S(=O)(=O)Nc1ccc3c(c1)OCCO3)OCC(=O)N2 [BC181342]
< 0.1	Cc1ccc(NS(=O)(=O)c2cc3c(cc2Cl)NC(=O)CO3)cc1F [BC181343]
0.1 to 1	Cc1cc2c(cc1S(=O)(=O)Nc1ccccc1Br)OCC(=O)N2 [BC181344]
